From patent US20180000085A1, “USE OF PICOLINAMIDE COMPOUNDS WITH FUNGICIDAL ACTIVITY” (DOW AGROSCIENCES LLC, priority 2014, published 2018)

Columns and labels:
Zymoseptoria tritici = test: Leaf blotch of wheat (SEPTTR) disease control on wheat seedlings; assay type: in vivo; design: key to SEPTTR 1DP, HV activity at 100 ppm (% control rating) / SEPTTR 3DC, HV activity at 100 ppm (% control rating) / SEPTTR disease control, 1DP / SEPTTR disease control, 3DC / SEPTTR 1DP disease control rating, HV activity / SEPTTR 3DC disease control rating, HV activity / SEPTTR 3DC, LV activity at 125.1 g/H (% Control rating) / SEPTTR 1DP, LV activity at 125.1 g/H (% Control rating) / SEPTTR 1DP disease control rating, LV activity at 125.1 g/H / SEPTTR 3DC disease control rating, LV activity at 125.1 g/H / SEPTTR 3DC disease control rating, HV activity at 100 ppm / SEPTTR 1DP disease control rating, HV activity at 100 ppm / HV activity at 100 ppm SEPTTR 3DC (disease control rating) / HV activity at 100 ppm SEPTTR 1DP (disease control rating) / LV activity at 125.1 g/H SEPTTR 1DP (disease control rating) / LV activity at 125.1 g/H SEPTTR 3DC (disease control rating): A: > 80; B: ≤ 80; C: Not Tested; D: No Activity Observed in the Reported Assay; details: for SEPTTR 1DP disease control rating, LV activity at 125.1 g/H / SEPTTR 3DC disease control rating, LV activity at 125.1 g/H: low volume application; for SEPTTR 1DP disease control rating, LV activity at 125.1 g/H / SEPTTR 1DP disease control rating, HV activity at 100 ppm: 1 day protectant; for SEPTTR 3DC disease control rating, LV activity at 125.1 g/H / SEPTTR 3DC disease control rating, HV activity at 100 ppm: 3 day curative; for SEPTTR 1DP disease control rating, HV activity at 100 ppm / SEPTTR 3DC disease control rating, HV activity at 100 ppm: high volume application
Puccinia triticina = test: Wheat brown rust (PUCCRT) disease control on wheat seedlings; assay type: in vivo; design: key to PUCCRT 3DC, HV activity at 100 ppm (% control rating) / PUCCRT disease control, 3DC / PUCCRT 1DP disease control rating, HV activity / PUCCRT 3DC disease control rating, HV activity / PUCCRT 3DC, LV activity at 125.1 g/H (% Control rating) / PUCCRT 1DP, LV activity at 125.1 g/H (% Control rating) / PUCCRT 3DC disease control rating, LV activity at 125.1 g/H / PUCCRT 1DP disease control rating, LV activity at 125.1 g/H / PUCCRT 3DC disease control rating, HV activity at 100 ppm / PUCCRT 1DP disease control rating, HV activity at 100 ppm / HV activity at 100 ppm PUCCRT 3DC (disease control rating) / LV activity at 125.1 g/H PUCCRT 1DP (disease control rating) / LV activity at 125.1 g/H PUCCRT 3DC (disease control rating): A: > 80; B: ≤ 80; C: Not Tested; D: No Activity Observed in the Reported Assay; details: for PUCCRT 1DP disease control rating, LV activity at 125.1 g/H / PUCCRT 3DC disease control rating, LV activity at 125.1 g/H: low volume application; for PUCCRT 1DP disease control rating, LV activity at 125.1 g/H / PUCCRT 1DP disease control rating, HV activity at 100 ppm: 1 day protectant; for PUCCRT 3DC disease control rating, LV activity at 125.1 g/H / PUCCRT 3DC disease control rating, HV activity at 100 ppm: 3 day curative; for PUCCRT 1DP disease control rating, HV activity at 100 ppm / PUCCRT 3DC disease control rating, HV activity at 100 ppm: high volume application

Row | SMILES | SEPTTR 1DP disease control rating, LV activity at 125.1 g/H (Zymoseptoria tritici) | SEPTTR 3DC disease control rating, LV activity at 125.1 g/H (Zymoseptoria tritici) | PUCCRT 1DP disease control rating, LV activity at 125.1 g/H (Puccinia triticina) | PUCCRT 3DC disease control rating, LV activity at 125.1 g/H (Puccinia triticina) | SEPTTR 1DP disease control rating, HV activity at 100 ppm (Zymoseptoria tritici) | SEPTTR 3DC disease control rating, HV activity at 100 ppm (Zymoseptoria tritici) | PUCCRT 1DP disease control rating, HV activity at 100 ppm (Puccinia triticina) | PUCCRT 3DC disease control rating, HV activity at 100 ppm (Puccinia triticina)
1 | COc1ccnc(C(=O)NC(C)C(=O)OC(C)C(Oc2ccccc2)c2cccs2)c1OC(C)=O (centres unmarked) [Cmpd 690] | B (≤ 80) | B (≤ 80) | B (≤ 80) | B (≤ 80) | – | – | – | –
2 | C=CC[C@@H](Oc1ccccc1)[C@H](C)OC(=O)[C@H](C)NC(=O)c1nccc(OC)c1OC(C)=O [Cmpd 695] | B (≤ 80) | B (≤ 80) | A (> 80) | A (> 80) | – | – | – | –
3 | C=CC[C@@H](Oc1ccc(Cl)cc1Cl)[C@H](C)OC(=O)[C@H](C)NC(=O)c1nccc(OC)c1OC(C)=O [Cmpd 697] | D | B (≤ 80) | A (> 80) | A (> 80) | – | – | – | –
4 | C=CC[C@@H](Oc1ccccc1)[C@H](C)OC(=O)[C@H](C)NC(=O)c1nccc(OC)c1OCOC(C)=O [Cmpd 698] | B (≤ 80) | A (> 80) | A (> 80) | A (> 80) | – | – | – | –
5 | C=CC[C@@H](Oc1ccc(Cl)cc1Cl)[C@H](C)OC(=O)[C@H](C)NC(=O)c1nccc(OC)c1OCOC(C)=O [Cmpd 700] | D | B (≤ 80) | A (> 80) | A (> 80) | – | – | – | –
6 | COc1ccnc(C(=O)NCC(=O)O[C@@H](C)[C@H](Oc2ccccc2)C(C)C)c1O [Cmpd 809] | – | – | – | – | D | D | A (> 80) | A (> 80)
7 | CC[C@H](NC(=O)c1nccc(OC)c1O)C(=O)O[C@@H](C)[C@H](Oc1ccccc1)C(C)C [Cmpd 810] | – | – | – | – | A (> 80) | A (> 80) | A (> 80) | A (> 80)
8 | COc1ccnc(C(=O)N[C@H](C(=O)O[C@@H](C)[C@H](Oc2ccccc2)C(C)C)C(C)C)c1O [Cmpd 811] | – | – | – | – | B (≤ 80) | B (≤ 80) | A (> 80) | A (> 80)
9 | COc1ccnc(C(=O)N[C@@H](CC(C)C)C(=O)O[C@@H](C)[C@H](Oc2ccccc2)C(C)C)c1O [Cmpd 813] | – | – | – | – | D | B (≤ 80) | B (≤ 80) | D
10 | COc1ccnc(C(=O)N[C@@H](C)C(=O)O[C@@H](C)[C@H](Oc2cccc(F)c2)c2cccc(-c3ccccc3)c2)c1O [Cmpd 814] | – | – | – | – | D | D | B (≤ 80) | D
11 | CC[C@H](OC(=O)[C@H](C)NC(=O)c1nccc(OC)c1O)[C@H](Oc1ccccc1)C(C)C [Cmpd 815] | – | – | – | – | B (≤ 80) | D | A (> 80) | A (> 80)
